Earlier results in patent US20150018389A1, “METHOD FOR TREATING PARKINSONS DISEASE AND OTHER NEUROLOGICAL DISEASES” (priority 2013, published 2015).

Experiments:
CD4 lymphocyte counts = conditions: erythema nodosum leprosum (Moncada et al. 1985)
[1] = test system: tumor necrosis factor alpha production by stimulated monocytes; conditions: stimulated monocytes (Sampaio et al. 1991)
[2] = serum vs in vitro pH 7.4
HIV [3] = conditions: peripheral blood mononuclear cells of HIV-infected patients
[4] = not given; remark: listed apart in the source
[5] = not given; remark: listed apart in the source
HIV [6] = conditions: infected cell lines induced with tumor necrosis factor alpha (Schauf et al. 1992)
[7] = test system: tumor necrosis factor alpha; conditions: erythema nodosum leprosum, treatment with thalidomide (Sampaio et al. 1992)

O=C1CCC(N2C(=O)c3ccccc3C2=O)C(=O)N1 (racemic) [Thalidomide, N-phthalidoglutarimide]
absorption (humans, orally administered): poorly absorbed
plasma protein binding (in vivo): highly bound to plasma proteins
previously suppressed CD4 lymphocyte counts (CD4 lymphocyte counts): increases
tumor necrosis factor alpha production [1]: inhibit
hydrolytic cleavage in serum compared with in vitro at pH 7.4 [2]: much slower
HIV production (HIV [3]): reduce
side effects in humans [4]: somnolence, teratogenicity and, upon extended administration, peripheral neuropathy
toxicity in a series of animal studies [5]: has not been toxic
HIV expression (HIV [6]): inhibited
elevated tumor necrosis factor alpha levels [7]: reduced
